{
  "source": "patent US12419918B2",
  "about": "“Pediococcus acidilactici CCFM6432 for alleviating depression, food fermented thereby and application thereof” (Jiangnan University, priority 2019, dated 2025)",
  "key": {"IL-1β, IL-6 and TNF-α": {"test_system": "IL-1β, IL-6 and TNF-α", "test": "IL-1β, IL-6 and TNF-α in the serum by ELISA kit", "format": "in vivo", "details": "chronic stress mice; sixth weekend", "protocol": "(§1) The mice in Example 2 were euthanized at the sixth weekend. A fresh mouse spleen (about 50 mg) was taken, 5 mL of a pre-chilled PBS buffer was added, and the mouse spleen was cut, ground, and filtered with a 200-mesh nylon sieve to obtain a tissue cell suspension. 2 mL of an erythrocyte lysate was added for lysis for 4 min, and the lysate was removed by centrifugation at room temperature (300×g, 5 min). The obtained cell precipitate was washed with pre-cooled PBS twice, and resuspended with a certain amount of PBS to obtain a lymphocyte suspension. Antibody labeling of regulatory T cells (Tregs) was performed in accordance with the instructions of an eBioscience Mouse Regulatory T cell Staining Kit (Invitrogen Corporation, Carlsbad, CA, USA). The Tregs (CD4+CD25+Foxp3+) were detected by flow cytometry. The contents of IL-1β, IL-6 and TNF-α in the serum were detected with an ELISA kit."}, "intestinal microbiome": {"test_system": "intestinal microbiome", "test": "16S rDNA sequencing of the intestinal microbiome from mouse feces", "format": "in vivo", "details": "depressed mice feces", "description": "Fresh feces of the mice in Example 2 was taken at the sixth weekend, and total DNA was extracted from the mouse feces sample using an MP feces kit. Specific operation steps are as follows, mainly referring to the kit instructions. The mouse fecal genome was used as a template, V3-V4 fragments of 16S rDNA were amplified using a forward primer 520F (5′-AYTGGGYDTAAAGNG-3′) and a reverse primer 802R (5′-TACNVGGGTATCTAATCC-3′) as primers, and the length of a target fragment was about 247 bp. After the PCR reaction, all PCR samples in which target bands were observed were electrophoresed again, a 2.0% agarose gel was prepared, and electrophoresis was performed at 120 V for 40 min. […] The DNA concentration of the sample was measured according to a Qubit DNA3.0 kit, then a library was constructed according to a TurSeq DNA LT Sample Preparation Kit and instructions thereof, and finally determination was performed on an Illumina Miseq sequencer according to a MiSeq Regent Kit and instructions thereof. […] The sequences with the similarity greater than 97% were defined as a taxonomic unit (Operational Taxonomic Unit, OTU), and the species was determined by a Ribosomal Database Project (RDP) Naïve Bayesclassifier. The α-diversity and β-diversity of the sample were calculated to assess the bacterial diversity of the sample. […] The β-diversity was assessed by principal co-ordinates analysis (PCoA) (FIG. 9C). […]"}, "[1]": {"test_system": "regulatory T cells (Tregs)", "test": "Regulatory T cells (CD4+CD25+Foxp3+) in spleen by flow cytometry", "format": "in vivo", "details": "chronic stress mice; sixth weekend", "protocol": "as §1"}, "depressed mice": {"test_system": "depressed mice", "test": "Elevated plus-maze test", "format": "in vivo, C57BL/6J mice", "details": "chronic unpredictable mild stress mice; gavage; activities within 10 min", "protocol": "32 6-week-old male C57BL/6J mice were selected. After one week of adaptation to the environment, the mice were randomly divided into four groups according to body weight: a normal control group, a depression model group, a drug intervention group, and a CCFM6432 intervention group, each containing 8 mice.\nChronic unpredictable stress depression mouse model: 1-2 kinds of stimuli were randomly performed every day, and the performance time of stimuli every day was determined randomly to avoid the circadian rhythm. Each method was used for not more than three times, and the stimuli were performed for five weeks. The stimuli include: (1) fasting for 24 h; (2) water deprivation+empty bottle stimulus for 24 h; (3) tail pinching for 3 min; (4) wet padding for 24 h; (5) immobilization for 1-2 h; (6) 45° tilted cage for 24 h; (7) continuous lighting for 24 h; (8) no padding for 24 h; (9) forced swim for 15 min; and (10) separation for 24 h. […]\nAt the beginning of the test, a mouse was placed into a maze from the central grid facing a closed arm, and its activities within 10 min were recorded. […] The proportion of time spent in the open arms, the proportion of entries in the open arms, and the total number of entries in the elevated plus maze were calculated. […]"}},
  "data": [
    {"smiles": "CNCCC(Oc1ccc(C(F)(F)F)cc1)c1ccccc1", "note": "(stereo not shown) [Fluoxetine, fluoxetine]", "values": [
      {"measurement": "degree of inflammation (IL-1β, IL-6 and TNF-α in the serum)", "setting": "IL-1β, IL-6 and TNF-α", "value": "reduce the degree of inflammation"},
      {"measurement": "structure of the intestinal microbiome (β-diversity, PCoA)", "setting": "intestinal microbiome", "value": "could normalize the structure of the intestinal microbiome"},
      {"measurement": "immune state (proportion of Tregs in the spleen)", "setting": "[1]", "value": "could significantly improve the immune state"},
      {"measurement": "entries and time spent in the open arms", "setting": "depressed mice", "value": "had no effect"}
    ]}
  ]
}
